Measured values reported in PubChem BioAssay AID608 (Sanford-Burnham Center for Chemical Genomics, 2007).
The source made the active and inactive calls. How the calls were made is not given here.

Target: Peptidyl-prolyl cis-trans isomerase FKBP1A (Homo sapiens) (UniProt P62942)
Experiment: small-molecule binding to FKBP12 – biophysical, NMR detection (AID 608)
Settings: purified FKBP12

Sequence of Peptidyl-prolyl cis-trans isomerase FKBP1A (Homo sapiens) (P62942 whole entry, looked up): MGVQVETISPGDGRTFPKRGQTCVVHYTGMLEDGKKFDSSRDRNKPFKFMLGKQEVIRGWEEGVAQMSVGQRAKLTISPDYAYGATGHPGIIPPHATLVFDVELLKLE

| SMILES | Kd |
| --- | --- |
| CC(=O)c1nnc2cc(C)nn2c1C | > 4 mM (inactive) |
| COC(=O)c1c(OC)cc2c(c1C)Oc1c(Cl)c(O)c(Cl)c(C)c1C(=O)O2 | > 4 mM (inactive) |
| Cn1c2c(c(=O)n(C)c1=O)CN(Cc1ccco1)CN2 | > 4 mM (inactive) |
| COC(=O)C1[C@H]2C[C@H]3c4[nH]c5ccccc5c4CCN3C[C@@H]2CC[C@@H]1O (some centres undefined) | > 4 mM (inactive) |
| Cc1cc(C(=O)Nc2ccc3c(c2)OCO3)cs1 | > 4 mM (inactive) |
| NC(=O)C12CC3CC(C1)C(=O)C(C3)C2 | > 4 mM (inactive) |
| CC1=NN(c2ccc(C)cc2)C(=O)C1 | > 4 mM (inactive) |
| Fc1ccc(F)c(CN2CCN(c3ncccn3)CC2)c1 | > 4 mM (inactive) |
| O=c1c(O)c(-c2ccccc2)oc2ccc3occc3c12 | > 4 mM (inactive) |
| CC(C)=CC1C(CO)C1(C)C (centres undefined) | > 4 mM (inactive) |
| CC(=O)n1c(N)nc2ccccc21 | > 4 mM (inactive) |
| COc1cc(NC(=O)c2ccccc2)c(C)cc1N | > 4 mM (inactive) |
| OC/C=C/c1ccc(O)c(O)c1 | > 4 mM (inactive) |
| COc1ccc(CN2CCOCC2)c(C)c1C | > 4 mM (inactive) |
| O=C(O)c1cccc2c1OCCO2 | > 4 mM (inactive) |
| O=C(O)CNC(=O)c1ccccc1 | > 4 mM (inactive) |
| CN(c1ccccc1C(=O)N1CCCC1)S(C)(=O)=O | > 4 mM (inactive) |
| Cc1cc(=O)c2c(O)c(C)c(O)cc2o1 | > 4 mM (inactive) |
| COc1ccc(C)cc1S(=O)(=O)Nc1ccccc1C | > 4 mM (inactive) |
| Nc1ccc(Cc2ccc(N)cc2)cc1 | > 4 mM (inactive) |
| O=C(O)CCCCCCCC(=O)O | > 4 mM (inactive) |
| CSc1ccccc1NC(=O)c1ccncc1 | > 4 mM (inactive) |
| COc1ccccc1NC(=O)C1CCC(=O)N1 (centres undefined) | > 4 mM (inactive) |
| O=C1CSC(=Nc2ccccc2)N1 | > 4 mM (inactive) |
| C[C@@H]1C(=O)OC2[C@H](O)C34[C@@H]5OC(=O)[C@@]3(O[C@@H]3OC(=O)[C@H](O)[C@@]34[C@H](C(C)(C)C)[C@H]5O)[C@]21O (some centres undefined) | > 4 mM (inactive) |

| SMILES | Kd |
| --- | --- |
| Cc1cc(C)n(S(=O)(=O)c2cc(C)c(C)cc2C)n1 | > 4 mM (inactive) |
| CC1(C)CC2C1CC[C@]1(C)CCC3C(C(=O)O)CC(=O)O[C@@]32C1 (some centres undefined) | > 4 mM (inactive) |
| CN1CCN(C(=O)c2ccco2)CC1 | > 4 mM (inactive) |
| Cc1ccc(C(=O)NC2=NCCS2)o1 | > 4 mM (inactive) |
| Cc1nc(-c2ccc(NS(C)(=O)=O)cc2)cs1 | > 4 mM (inactive) |
| CC1=CC(=O)C2C(C)(C)CCC[C@]2(C)[C@@]1(O)CCc1ccoc1 (some centres undefined) | > 4 mM (inactive) |
| CCN1C(=O)c2c(C)nc3ccccc3c2C1=O | > 4 mM (inactive) |
| Cn1c(=O)c2[nH]cnc2n(C)c1=O | > 4 mM (inactive) |
| O=c1c[n+]([O-])c2ccccc2n1OCc1ccccn1 | > 4 mM (inactive) |
| Cc1n[nH]c(C)c1N | > 4 mM (inactive) |
| COc1cc(/C=C/C(=O)O)ccc1O | > 4 mM (inactive) |
| Nc1nc(NCc2ccco2)nn1-c1ccccc1 | > 4 mM (inactive) |
| O=C1CCCN1C(=O)c1ccc(F)cc1 | > 4 mM (inactive) |
| NC(N)=NOCC[C@H](N)C(=O)O | > 4 mM (inactive) |
| O=C(O)c1ccc(CN2CCOCC2)cc1 | > 4 mM (inactive) |
| O=C1CS/C(=N/N=C2CCCC2)N1 | > 4 mM (inactive) |
| CC(=O)Nc1cccc(-c2nc3ccccc3c(=O)o2)c1 | > 4 mM (inactive) |
| O=c1[nH]c(=S)c2c(n1-c1ccccc1)CCC2 | > 4 mM (inactive) |
| O=C(O)c1cccnc1N1CCCC1 | > 4 mM (inactive) |
| CC(=O)Nc1ccc(NC(=O)N2CCOCC2)cc1 | > 4 mM (inactive) |
| Cc1cc(N)ccc1NC(=O)c1ccco1 | > 4 mM (inactive) |
| NS(=O)(=O)c1ccc2c(c1)OCCO2 | > 4 mM (inactive) |
| CC(=O)NC12CC3CC(C)(C1)CC(NC(C)=O)(C3)C2 | > 4 mM (inactive) |
| NC(=O)c1cccc(Cl)n1 | > 4 mM (inactive) |
